The text below walks through data of paper PMC11314063, “Inhibition of DNA Topoisomerase Ι by Flavonoids and Polyacetylenes Isolated from Bidens pilosa L” (Molecules, 2024).

One series concerns A549. Description: SRB cytotoxicity assay, A549. The format is cell-based. The following applies: Homo sapiens, read-out: IC50 Cytotoxicity A549. From the text:
(§1) The cell lines MDA-MB-231 (No. TCHu227), A549 (No. TCHu150), and HepG2 (No. TCHu72) were obtained from the Cell Bank/Stem Cell Bank, Chinese Academy of Sciences (Shanghai, China). The cell lines DLD-1 (No. CC0507) and HCT116 (No. CC0506) were obtained from the Cell Bank of Cellcook Biotech Co., Ltd. (Guangzhou, China). Cell line HL-7702 (No. BNCC338358) was obtained from Bena Culture Collection (Zhengzhou, China).
(§2) The human cancer cell lines MDA-MB-231 (breast adenocarcinoma), DLD-1 (colorectal adenocarcinoma), A549 (lung epithelial carcinoma), HCT116 (colorectal adenocarcinoma), HepG2 (hepatocellular carcinoma), and human hepatocyte HL-7702 were cultured in Dulbecco’s modified eagle medium (DMEM, Biological Industries, Beit Haemek, Israel) containing 10% (v/v) fetal bovine serum (FBS, Biological Industries, Beit Haemek, Israel) at 37 °C in a humidified incubator (ThermoFisher, Carlsbad, CA, USA) with a 5% CO2 atmosphere.

The subject of the next series is HCT116. Description: SRB cytotoxicity assay, HCT116. The format is cell-based. The following applies: Homo sapiens, read-out: IC50 Cytotoxicity HCT116.
From the text: as §1, §2

Series [1] in a line: SRB cytotoxicity assay, hepatocyte HL-7702. The following applies: SRB assay, 48 h, human hepatocyte, mean ± SD, read-out: IC50 Cytotoxicity HL-7702. The series is classed as cell-based, human.
From the text: as §1, §2

A further series concerns DLD-1. Description: SRB cytotoxicity assay, DLD-1. The format is cell-based. To be noted: Homo sapiens, read-out: IC50 Cytotoxicity DLD-1.
From the text: as §1, §2

The next series deals with HepG2. Description: SRB cytotoxicity assay, HepG2. The series is classed as cell-based. The following applies: Homo sapiens, read-out: IC50 Cytotoxicity HepG2.
From the text: as §1, §2

A further series deals with MDA-MB-231. Description: SRB cytotoxicity assay, MDA-MB-231. The series is classed as cell-based. The following applies: Homo sapiens, read-out: IC50 Cytotoxicity MDA-MB-231.
From the text: as §1, §2

The next series deals with T1, DNA Topo I (Homo sapiens, UniProt P11387).
T1 construct: purchased ThermoFisher, Waltham, MA, USA
T1 sequence (P11387 1-765): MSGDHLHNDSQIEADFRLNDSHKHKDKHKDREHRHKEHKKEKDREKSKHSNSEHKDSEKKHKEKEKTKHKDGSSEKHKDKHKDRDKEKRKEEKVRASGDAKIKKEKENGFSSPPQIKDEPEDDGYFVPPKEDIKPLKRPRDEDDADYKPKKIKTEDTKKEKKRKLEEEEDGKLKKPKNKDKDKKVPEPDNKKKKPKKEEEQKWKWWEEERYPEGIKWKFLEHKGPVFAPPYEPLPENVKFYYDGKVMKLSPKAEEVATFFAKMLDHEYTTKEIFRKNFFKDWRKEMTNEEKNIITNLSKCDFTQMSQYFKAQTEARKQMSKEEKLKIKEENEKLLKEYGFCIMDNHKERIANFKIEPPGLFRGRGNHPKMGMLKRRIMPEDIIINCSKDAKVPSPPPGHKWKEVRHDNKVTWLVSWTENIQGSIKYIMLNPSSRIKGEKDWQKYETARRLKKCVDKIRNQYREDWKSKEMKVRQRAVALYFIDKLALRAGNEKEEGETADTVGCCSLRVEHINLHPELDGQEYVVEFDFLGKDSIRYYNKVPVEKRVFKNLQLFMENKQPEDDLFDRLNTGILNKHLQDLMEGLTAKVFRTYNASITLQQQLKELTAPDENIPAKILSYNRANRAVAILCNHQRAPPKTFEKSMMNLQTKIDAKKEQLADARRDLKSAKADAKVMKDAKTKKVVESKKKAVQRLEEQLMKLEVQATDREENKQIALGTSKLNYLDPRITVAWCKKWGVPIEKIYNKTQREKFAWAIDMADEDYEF
Briefly: Topo I inhibition assay (DNA relaxation assay). The format is biochemical. The following applies: for IC50: DNA relaxation assay, pBR322, mean ± SD; for inhibition at 400 µM: read-out: percentage inhibition on Topo I activity. The procedure: The DNA relaxation assay was adopted to investigate the compounds’ inhibitory activities on Topo I. Different concentrations of the compounds, dissolved and diluted in DMSO, were added into the relaxation buffer (50 mM Tris, pH 7.5, 50 mM KCl, 10 mM MgCl2, 0.1 mM EDTA, 0.5 Mm dithiothreitol, and 0.05 mg/mL bovine serum albumin) containing 0.2 U Topo I (ThermoFisher, Waltham, MA, USA) and incubated at room temperature for 10 min. After that, 500 ng supercoiled pBR322 plasmid DNA (ThermoFisher, Waltham, MA, USA) was added and then incubated at 37 °C for another 30 min. Finally, the reactions were stopped with a stopping solution (5% sodium dodecyl sulfate, 0.0025% bromophenol blue, and 25% glycerol), and the mixtures were applied onto 0.8% agarose gel and subjected to electrophoresis for 1.5 h in Tris-Acetate-EDTA buffer. After being stained with GelRed (Biotium, Fremont, CA, USA), the gel was imagined with the imaging system (Biotop, Shanghai, China). […] The band density of the supercoiled DNA was quantified by the ImageJ software (version 1.53a, National Institutes of Health, Bethesda, MD, USA), and the inhibition activity is expressed as the percentage inhibition and calculated by formula: Inhibition % = [(A − B)/(C − B)] × 100%, where A is the band density of the tested samples, B is the band density of the negative control, and C is the band density of the blank control.

The subject of series [2] is A549, HCT116, MDA-MB-231, HepG2, DLD-1, HL-7702. Description: SRB cytotoxicity assay, panel of five human cancer cell lines and one human hepatocyte cell line. To be noted: tested concentration of 200 μM. The procedure:
(§3) The cytotoxicities of 1–29 were tested by an SRB assay on a panel of five human cancer cell lines and one human hepatocyte cell line.
(§4) The cytotoxic activities of the compounds against cancer cells were examined with a sulforhodamine B (SRB) colorimetric assay. Cells were seeded at a density of 5 × 10^3/well in 96-well plates for 24 h; various concentrations of the tested compounds, dissolved in DMSO and diluted with the complete medium, were added in the wells in triplicate and incubated for 48 h. After that, the cell viability was assessed with the SRB assay as we described before. The IC50 values were determined using the Reed and Muench method and are expressed as the mean ± SD of at least three independent measurements.

Another series in a line: in vitro. The following applies: human. The procedure: as §3, §4
Another series relates to HCT116 cells. Description: DNA content analysis (cell cycle, flow cytometry) in HCT116. The format is cell-based, human. To be noted: 24 h. The procedure: (§5) Cells were seeded in 6-well plates and allowed to adhere for 24 h at 37 °C. After treatment with different concentrations of the samples for another 24 h, the cells were harvested and washed with PBS, and then, the DNA content analysis was conducted with a cell cycle staining kit (Multi sciences, Hangzhou, China), according to the manufacturer’s instructions. The fluorescence intensity of the cells was measured by flow cytometry (Beckman CytoFlex, Miami, FL, USA).
Figure S21 Results of flavonoid 5 induced cell cycle arrests in HCT116 cells. A)
Representative images of flow-cytometry analysis of DNA content; B) Statistic analysis
of cells in G1, S, and G2/M phase after treated with 5. After treatment with 2 and 1 μM
compounds 5 for 24 h, the percentages of cell population in the G2/M phase
respectively, which meant a potent G2/M cell cycle arrest caused by the treatment (P<
0.0001). In addition, after treatment with 0.5 μM compounds 5 for 24 h, the percentages
that an apparent G1 or S phase arrest was induced after the treatment with a lower
different from the vehicle control. Data are expressed as mean ± SD values from three
(1 picture or pasted object on this page, not shown here)

Series [3] deals with DLD-1 cells. Briefly: Western blot of cell cycle-related proteins in DLD-1. The format is cell-based, human. To be noted: 24 h. The procedure: Cells treated with the compounds were harvested, and the total protein was isolated with lysis buffer (72 mM Tris pH 6.8, 2% SDS, 10% glycerol, and 0.1% bromophenol blue). The proteins were subjected to SDS-PAGE and transferred to a 0.45 μm PVDF membrane (Millipore, Burlington, USA). After being blocked with 5% non-fat milk in TBST, the membranes were washed and then incubated with specific primary antibodies (Cdk2 and Cdk6 were purchased from BBI Life Sciences Corporation, Shanghai, China; cyclin A, cyclin B, cyclin D, cyclin E, Cdk1, and Cdk4 were purchased from Proteintech, Rosemont, IL, USA) in TBST containing 2% non-fat milk overnight at 4 °C. After washing, the membranes were incubated with secondary horseradish peroxidase (HRP)-conjugated antibodies at room temperature for 1 h. The blot was visualized using an enhanced chemiluminescence assay kit (Meilunbio, Dalian, China) under a chemiluminescence detector (Tanon, Shanghai, China). The band density of the blot was quantified by the ImageJ software with at least three independent experiments.

For series [4], the system named is DLD-1 cells. Description: DNA content analysis (cell cycle, flow cytometry) in DLD-1. The format is cell-based, human. To be noted: 24 h. The procedure:
as §5

Setting [5] is: A549, SRB assay, 48 h, mean ± SD.
Where [6] appears, read: HCT-116, SRB assay, 48 h, mean ± SD.
Setting [7] is: DLD-1, SRB assay, 48 h, mean ± SD.
The mark [8] stands for this setting: HepG2, SRB assay, 48 h, mean ± SD.
[9] abbreviates: MDA-MB-231, SRB assay, 48 h, mean ± SD.

Like-named read-outs stand apart in the source and are kept apart here.

Regarding `C=CCCCCC[C@H](O)[C@@H](O)[C@H](C#CC#CCCC)OC` [Compound 29], the IC50 in the series with A549 (A549, 48 h) is more than 200 µM; with HCT116 (HCT-116, 48 h), more than 200 µM; in the series with DLD-1 (DLD-1, 48 h), more than 200 µM; with HepG2 (HepG2, 48 h), more than 200 µM; with MDA-MB-231 (MDA-MB-231, 48 h) it was more than 200 µM; against DNA Topo I, more than 400 µM. In addition, in [1], the IC50 at 48 h is more than 200 µM. Further, the “cytotoxicity in all cell lines” value in series [2] is on record as “no cytotoxicity”.

As to `COc1ccc(-c2oc3cc(O[C@@H]4O[C@H](CO)[C@@H](O)[C@H](O)[C@H]4O)cc(O)c3c(=O)c2OC)cc1O` [Compound 13], the concentration for half-maximal inhibition (IC50) is more than 200 µM with A549 (setting [5]); 139 ± 11.3 µM in the series on HCT116 (setting [6]); 179 ± 5.94 µM with DLD-1 (setting [7]); more than 200 µM with HepG2 (setting [8]); more than 200 µM in the series on MDA-MB-231 (setting [9]); more than 400 µM at DNA Topo I. In addition, the IC50 at 48 h in [1] (HL-7702 hepatocyte cell line) was more than 200 µM; in the series “in vitro” it was not below 50.5 µM. In addition, at DNA Topo I, the inhibition at 400 µM came out at 38.6%.

As to `COc1ccc(/C=C/C(=O)c2ccc(OC)cc2O)cc1` [Compound 3], the IC50 in the series on A549 (setting [5]) was 136 ± 25 µM; in the series on HCT116 (setting [6]) it was 178 ± 6.11 µM; in the series on DLD-1 (setting [7]), 117 ± 11.6 µM; in the series on HepG2 (setting [8]) it was more than 200 µM; in the series on MDA-MB-231 (setting [9]), 167 ± 5.63 µM; at DNA Topo I, more than 400 µM. Moreover, the IC50 at 48 h in series [1] (HL-7702 hepatocyte cell line) was more than 200 µM; in “in vitro” it was not below 50.5 µM. Also, at DNA Topo I, the inhibition at 400 µM was determined as 24.6%.

As for `CC#CC#CC#CC=CC1OCCCC1OC(C)=O` (stereo not shown) [Compound 24], the 50% inhibitory concentration (IC50) in the series on A549 (A549, 48 h) was more than 200 µM; with HCT116 (HCT-116, 48 h), more than 200 µM; in the series with DLD-1 (DLD-1, 48 h), more than 200 µM; in the series on HepG2 (HepG2, 48 h), more than 200 µM; with MDA-MB-231 (MDA-MB-231, 48 h), more than 200 µM; at DNA Topo I it was 218 ± 50.8 µM. Moreover, the IC50 at 48 h in series [1] is more than 200 µM. Also, the “cytotoxicity in all cell lines” value in series [2] is “no cytotoxicity”.

For the molecule `COc1ccc(-c2oc3cc(O)c(OC)c(O)c3c(=O)c2OC)cc1O` [Compound 5], the IC50 amounted to 2.16 ± 0.3 µM in the series on A549 (setting [5]); 0.79 ± 0.13 µM with HCT116 (setting [6]); 0.6 ± 0.05 µM in the series on DLD-1 (setting [7]); 40.3 ± 11.1 µM with HepG2 (setting [8]); 39.7 ± 4.58 µM in the series with MDA-MB-231 (setting [9]); 146 ± 7.88 µM against DNA Topo I. In addition, in series [1] (HL-7702 hepatocyte cell line), the 50% inhibitory concentration (IC50) at 48 h was 14.4 ± 0.45 µM. Also, the “percentage of cells in the G1/S phase” value in the series on HCT116 cells (HCT116, 0.5 μM) is 91.23%; in the series with DLD-1 cells [4] (DLD-1, 0.5 μM) it was 85.30%; with DLD-1 cells [4] (DLD-1, 1 μM), 76.83%. Moreover, the “percentage of cell population in the G2/M phase” value in the series with HCT116 cells (HCT116, 1 μM) was determined as 81.84%; in the series on HCT116 cells (HCT116, 2 μM), 89.72%; in the series on DLD-1 cells [4] (DLD-1, 2 μM), 86.05%. Also, the “percentage of cells in G1/S (combined) phase” value in the series on HCT116 cells (HCT116, 1 μM) was 18.13%; in the series with HCT116 cells (HCT116, 2 μM) it was 10.16%. Also, the “expression levels of cyclin A, cyclin B, and CDK6” value in the series on DLD-1 cells [3] (DLD-1, 2 μM) was “potently decreased”. The “expression of cylcin D, cyclin E, and CDK6” value in the series on DLD-1 cells [3] (DLD-1, 1 and 0.5 μM) is recorded as “potent downregulation”. In addition, in the series on DLD-1 cells [4] (DLD-1, 2 μM), the “percentage of cells in the G1/S (combined) phase” value was determined as 13.46%.
